Target: T1, BRCA1-associated ATM activator 1 (BRAT1) (Homo sapiens, UniProt Q6PJG6)
T1 sequence (Q6PJG6 1-821): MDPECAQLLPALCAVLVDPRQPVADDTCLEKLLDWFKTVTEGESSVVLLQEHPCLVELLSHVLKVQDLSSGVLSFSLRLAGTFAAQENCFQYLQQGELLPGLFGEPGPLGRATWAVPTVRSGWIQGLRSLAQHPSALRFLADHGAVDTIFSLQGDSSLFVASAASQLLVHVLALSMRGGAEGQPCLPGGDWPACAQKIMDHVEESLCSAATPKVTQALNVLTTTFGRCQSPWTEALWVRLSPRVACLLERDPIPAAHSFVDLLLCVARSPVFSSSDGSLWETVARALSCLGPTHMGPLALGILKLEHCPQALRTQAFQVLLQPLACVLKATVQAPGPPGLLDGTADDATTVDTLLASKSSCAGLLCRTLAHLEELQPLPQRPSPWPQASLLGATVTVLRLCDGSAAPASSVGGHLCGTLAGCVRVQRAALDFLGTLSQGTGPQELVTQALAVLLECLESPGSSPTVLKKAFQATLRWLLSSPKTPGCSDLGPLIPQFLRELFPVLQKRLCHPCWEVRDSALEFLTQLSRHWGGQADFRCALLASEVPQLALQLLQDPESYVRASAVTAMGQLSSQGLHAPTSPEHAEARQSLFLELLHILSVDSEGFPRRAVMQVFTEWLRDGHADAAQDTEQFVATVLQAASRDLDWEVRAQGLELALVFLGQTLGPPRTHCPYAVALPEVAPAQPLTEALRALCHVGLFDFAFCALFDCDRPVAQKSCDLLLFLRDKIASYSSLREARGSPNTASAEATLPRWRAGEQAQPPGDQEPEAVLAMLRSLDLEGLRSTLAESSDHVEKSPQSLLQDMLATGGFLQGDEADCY
Type: cell-based

Structure (SMILES): C=C(C)C1CCC(=C)C2C3=C(C[C@@](C)(O)C3=O)C(=O)C(C)=C[C@@H]12 (stereo partly shown) [1d, curcusone D]
- EC50: 2700 nM

— publication PMC8281983 (Journal of the American Chemical Society, 2021)
